Test results reported in patent publication US7977366B2, “Treating an inflammatory disorder or inhibiting respiratory burst in adherent neutrophils with chemical inhibitors of neutrophil activation” (Cornell Research Foundation, Inc., priority 2003, dated 2011).

Experiments:
p47phox = assay: Translocation of p47phox subunit to the cell membrane (western blot of membrane fraction); assay type: cell-based, human; conditions: TNF or PMA stimulation
From the text: In an attempt to identify specific steps of the biochemical pathway(s) that are influenced by Comp II, the effect on translocation of phagocyte oxidase (Phox) translocation was examined. Phox is a multi-subunit enzyme complex that generates H2O2 upon activation. Activation of Phox requires an assembly of both membrane associated and cytosolic subunits at the plasma or phagosomal membrane as well as phosphorylation of several subunits. The cytochrome b559 (also known as b558) components of phox (gp91 and gp22) are localized on the membranes of specific granules (Bjerrum et al, “Dual Granule Localization of the Dormant NADPH Oxidase and Cytochrome b559 in Human Neutrophils,” Eur J Haematol 43(1): 67-77 (1989), which is hereby incorporated by reference in its entirety), and recruitment of these subunits to the membrane occurs simultaneously with degranulation. […] The influence of Comp II on the translocation of p47phox subunit, one of the components of NADPH oxidase, to the cell membrane, was examined as follows.
Neutrophil lysates were prepared as above with 2.5% TritonX-100 lysis buffer (final concentration of 1% TritonX-100 after dilution in plate with residual KRPG). The cell lysate was passed through 26-gauge needle six times to shear DNA and centrifuged at 20,000×g for 15 min to remove cell debris and DNA. […]

human neutrophils = assay: Killing of bacteria by neutrophils; assay type: cell-based
Pyk2 = assay: TNF-induced phosphorylation of Pyk2 Y402 in neutrophils (western blot); assay type: cell-based, human
Procedure: Tissue culture plates (Primaria, Falcon) were coated with 3 ml of FBS in 5% CO2 at 37° C. for at least 1 h and washed twice with 0.9% saline. Isolated human neutrophils (1.5×10^6) were added to each plate containing 4 ml of reaction mixture, incubated with each compound at 37° C. for 30 min, and stimulated with either buffer control or TNF (100 ng/ml). When cells were fully spread (20-40 min), they were treated with 5 mM diisopropylfluorophosphate to inhibit serine proteases and lysed with either 125 μl of SDS lysis buffer (10 mM Tris-HCl, pH 7.6, 150 mM NaCl, 1% SDS, 1 mM PMSF, 1 mM Na pyrophosphate, 1 mM NaF, 1 mM vanadate, 5 μg/ml each of aprotinin, leupeptin, chymostatin, pepstatin A) for western blot, or with 200 μl of non-denaturing modified RIPA buffer (10 mM Tris-HCl, pH 7.6, 150 mM NaCl, 1% Triton-X100, 1 mM PMSF, 1 mM Na pyrophosphate, 1 mM NaF, 1 mM vanadate, 5 μg/ml each of aprotinin, leupeptin, chymostatin, pepstatin A) for immunoprecipitation. The cell lysate was passed through a 26-gauge needle six times to shear DNA and centrifuged at 20,000×g for 15 min to remove cell debris and DNA. The protein concentration was determined using a Bio-Rad (Indianapolis, Ind.) kit. […] After further washing with TBST, bound antibody was detected by enhanced chemiluminescence (Pierce ECL, Amersham Pharmacia, Piscataway, N.J.). […]

Q: For `O=C1CC(c2ccccc2)=NN1c1cccc(Cl)c1` [Comp II, 2-(3-Chloro-phenyl)-5-phenyl-2,4-dihydro-pyrazol-3-one], which “activation triggered translocation of phox 47 to the membrane” value (p47phox) is on record?
A: Its value is “not inhibited”.

Q: What about the “bacterial killing ability of PMNs (general statement)” value (human neutrophils) of the same molecule?
A: Its value is “sparing”.

Q: What about the “TNF-induced phosphorylation of Pyk2 Y402 (activation of Pyk2)” value (Pyk2) of the same molecule?
A: Its value is “did not block”.
